For series [1] the following is noted: cited from earlier work.
Series [2] has as its system cells from lymphoma and small-cell lung carcinoma lines, primary patient-derived cells. The conditions noted are these: single agent; cited from earlier work.
Series [3] has as its system RS4; 11 with G101V mutation. Briefly: In vitro anti-proliferation assay (ATPlite luminescence) in BCL-2-dependent ALL cell line RS4;11 with G101V mutation. Type of series: cell-based. The settings on record: Homo sapiens, RS4-11, 72 h; read-out: RS411-G101V IC50. The essentials:
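RS4;11 G101V cells at about 1×10^4 per well were exposed to a range of compound concentrations for about 72 h in medium with 10% FBS. Cellular ATP was measured by ATPlite luminescence after lysis, and IC50 was derived from the dose-response.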

The subject of series [4] is RS4; 11 cells. The settings on record: cited from earlier work.
Series [5] concerns CLL. The settings on record: read-out: average EC50, apoptosis; cited from earlier work.
For series [6], the system named is RS4; 11 xenografts. The conditions noted are these: single dose of 100 mg/kg; cited from earlier work.
Series [7] deals with DoHH2, Granta-519 xenografts. The conditions noted are these: single agent or in combination with Bendamustine and other agents; cited from earlier work.
The subject of series [8] is CLL who have 17p deletion. The settings on record: Human Phase I and II, CLL with 17p deletion; cited from earlier work.
Series [9] has as its target Mcl-1 (Homo sapiens, UniProt Q07820). The conditions noted are these: cited from earlier work.
In series [10] the target is T1, Bcl-w (Homo sapiens, UniProt Q92843).
T1 sequence (Q92843 1-193): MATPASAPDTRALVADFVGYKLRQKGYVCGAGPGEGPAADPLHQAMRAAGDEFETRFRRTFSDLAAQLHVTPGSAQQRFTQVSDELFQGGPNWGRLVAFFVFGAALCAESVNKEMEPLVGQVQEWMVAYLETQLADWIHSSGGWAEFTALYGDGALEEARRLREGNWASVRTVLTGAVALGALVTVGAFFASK
The conditions noted are these: cited from earlier work.

The test system of series [11] is xenograft models of small-cell lung cancer and acute lymphoblastic leukemia. The settings on record: oral administration, alone; cited from earlier work.
For series [12], the system named is circulating platelets. The conditions noted are these: cited from earlier work.

The structures appear in SMILES notation.

Sequence of Mcl-1 (Q07820 whole entry): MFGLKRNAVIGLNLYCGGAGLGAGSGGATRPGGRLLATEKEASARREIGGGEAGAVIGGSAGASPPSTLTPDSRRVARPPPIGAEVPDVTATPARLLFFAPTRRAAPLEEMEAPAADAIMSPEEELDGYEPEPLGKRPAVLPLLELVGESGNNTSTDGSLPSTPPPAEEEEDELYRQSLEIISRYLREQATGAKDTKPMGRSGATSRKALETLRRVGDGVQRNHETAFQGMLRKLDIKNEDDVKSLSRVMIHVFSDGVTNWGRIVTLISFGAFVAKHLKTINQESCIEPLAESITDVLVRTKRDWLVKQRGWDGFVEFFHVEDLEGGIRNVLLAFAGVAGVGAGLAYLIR

Consider `CN(C)CC[C@H](CSc1ccccc1)Nc1ccc(S(=O)(=O)NC(=O)c2ccc(N3CCN(Cc4ccccc4-c4ccc(Cl)cc4)CC3)cc2)cc1[N+](=O)[O-]` [ABT-737], for which, in series [1], the aqueous solubility entry was “low”. The cell killing result in [2] is “single-agent-mechanism-based killing”.
The IC50 is the point on the concentration scale where inhibition reaches its midpoint. What is called EC50 is the concentration that produces a half-maximal response. With `CC1(C)CCC(CN2CCN(c3ccc(C(=O)NS(=O)(=O)c4ccc(NCC5CCOCC5)c([N+](=O)[O-])c4)c(Oc4cnc5[nH]ccc5c4)c3)CC2)=C(c2ccc(Cl)cc2)C1` [ABT-199], the IC50 in series [3] was found to be 783 nM. The EC50 in series [4] (RS4, 11 cells) is 8 nM. For the same compound, the “apoptosis in RS4; 11 cells” value in series [4] (cytochrome c release, caspase activation, accumulation of sub-G0/G1 DNA) is listed as “rapid apoptosis”. Besides, the EC50 in series [5] was 3 nM. Moreover, in series [6], the “maximal tumor growth inhibition” value is given as 95% and the tumor growth delay was 152%. Also, the xenograft growth result in series [7] was “inhibits xenograft growth”. In series [8], the clinical efficacy entry is given as “highly efficacious”. In series [9], the “activity to Mcl-1” value is reported as “no activity”.
The Ki is the dissociation constant of the complex between target and ligand, obtained from inhibition or displacement. Turning to `CC1(C)CCC(c2ccc(Cl)cc2)=C(CN2CCN(c3ccc(C(=O)NS(=O)(=O)c4ccc(N[C@H](CCN5CCOCC5)CSc5ccccc5)c(S(=O)(=O)C(F)(F)F)c4)cc3)CC2)C1` [ABT-263], the Ki in series [10] is not above 1 nM. In addition, the tumor regression result in [11] was “complete tumor regressions”. Moreover, the “number of circulating platelets” value in [12] (clinical trial) is given as “rapid, concentration-dependent decrease”. Besides, the dose-limiting toxicity result in series [12] (single-agent treatment in patients) is recorded as “thrombocytopenia”.

These data come from US20250114374A1, “BCL-2 INHIBITORS” (Newave Pharmaceutical Inc., priority 2021, published 2025).
